This is an account of results in patent publication US4978663A, “5-(1-aminocyclohexyl)-2(1H)-pyridinone compounds which have pharmaceutical utility” (priority 1989, dated 1990).

A short description of test [1]: 2-phenyl-1,4-benzoquinone-induced writhing test in mice (PQW), analgesic activity. The test is classed as in vivo. In general terms: Writhing tests count abdominal constrictions after an irritant is injected.
A short description of test [2]: Dark Avoidance Assay (reversal of scopolamine induced memory deficit). Type of test: in vivo. The settings on record: mice, s.c., retest after 24 hours. As to the method: In this assay mice are tested for their ability to remember an unpleasant stimulus for a period of 24 hours. A mouse is placed in a chamber that contains a dark compartment; a strong incadescent light drives it to the dark compartment, where an electric shock is administered through metal plates on the floor. The animal is removed from the testing apparatus and tested again, 24 hours later, for the ability to remember the electric shock.
If scopolamine, an anticholinergic that is known to cause memory impairment, is administered before an animal's initial exposure to the test chamber, the animal re-enters the dark compartment shortly after being placed in the test chamber 24 hours later.

Molecules are shown by their SMILES.

As for `CC(=O)NC1(c2ccc(=O)[nH]c2)CCCCC1` [N-[1-(1,6-Dihydro-6-oxo-3-pyridinyl)cyclohexyl]acetamide], the “Analgesic PQW, % Inhibition of Writhing at 20 mg/kg., s.c.” value (“Analgesic PQW, % Inhibition … s.c.” below) in test [1] worked out at 58%. As to `CC1(C)CCC(N)(c2ccc(=O)[nH]c2)CC1.Cl` [5-(1-Amino-4,4-dimethylcyclohexyl)-2(1H)-pyridinone hydrochloride], the “% of animals with scopolamine induced memory deficit reversal” value (shortened to “% of animals”) in test [2] (2.5 mg/kg) was determined as 20%. For the same compound, the “Analgesic PQW, % Inhibition … s.c.” value in test [1] was determined as 62%. With `O=C(CN1CCC(C(=O)c2ccc(F)cc2)CC1)NC1(c2ccc(=O)[nH]c2)CCCCC1` [N-[1-(1,6-Dihydro-6-oxo-3-pyridinyl)cyclohexyl][4-(4-fluorobenzoyl)]-1-piperidineacetamide], the “Analgesic PQW, % Inhibition … s.c.” value in test [1] turned out to be 77%. On to `Cl.NC1(c2ccc(=O)n(Cc3ccccc3)c2)CCCCC1` [5-(1-Aminocyclohexyl)-1-(phenylmethyl)-2(1H)-pyridinone hydrochloride], for which the “% of animals” value in test [2] (0.16 mg/kg) was determined as 20%. Besides, in test [1], the “Analgesic PQW, % Inhibition … s.c.” value was 42%. For `CNC(=O)Oc1ccc2c(c1)[C@]1(C)CCN(C)[C@@H]1N2C` [Physostigmine, reference compound], the “% of animals” value in test [2] (0.31 mg/kg) stood at 20%. Turning to `CC(=O)NC1(c2ccc(=O)n(C)c2)CCCCC1` [N-[1-(1,6-Dihydro-1-methyl-6-oxo-3-pyridinyl)cyclohexyl]acetamide], the “% of animals” value in test [2] (0.63 mg/kg) is reported as 33%. For the compound `CC(=O)NC1(c2ccc(=O)n(C)c2)CCC(C(C)(C)C)CC1` (stereo not drawn) [cis-N-[1-(1,6-Dihydro-1-methyl-6-oxo-3-pyridinyl)-4-(1,1-dimethylethyl)cyclohexyl]acetamide], the “% of animals” value in test [2] (1.3 mg/kg) is listed as 33%. In addition, the “Analgesic PQW, % Inhibition … s.c.” value in test [1] was determined as 47%. Regarding `CCC(=O)O[C@](Cc1ccccc1)(c1ccccc1)[C@H](C)CN(C)C` [Propoxyphene, reference compound], the “Analgesic PQW, % Inhibition of Writhing” value in test [1] (3.9 mg/kg, s.c.) turned out to be 50%. Turning to `O=C(NC1(c2ccc(=O)[nH]c2)CCCCC1)c1ccccc1` [N-[1-(1,6-Dihydro-6-oxo-3-pyridinyl)cyclohexyl]benzamide], the “Analgesic PQW, % Inhibition … s.c.” value in test [1] is given as 72%. Same read-out and setting: the value for `NC1(c2ccc(=O)n(CC#CCN3CCCC3)c2)CCCCC1` [5-(1-Aminocyclohexyl)-1-[4-(pyrrolidin-1-yl)-2-butynyl]-2(1H)-pyridinone] was 53%.
